Source: US20190216761A1, “COMPOSITIONS COMPRISING 15-HEPE AND METHODS OF USING THE SAME” (Afimmune Limited, priority 2015, published 2019)
Marks after values point to notes of the source that are not given here.

Columns and labels:
Format in all cases: cell-based
hPPARδ = target: T1, hPPARδ (Homo sapiens, UniProt Q03181); assay: PPAR antagonist reporter assay (reference agonist at EC80)
T1 construct: expressed in transfected cells
T1 sequence (Q03181 211-439 limits assumed): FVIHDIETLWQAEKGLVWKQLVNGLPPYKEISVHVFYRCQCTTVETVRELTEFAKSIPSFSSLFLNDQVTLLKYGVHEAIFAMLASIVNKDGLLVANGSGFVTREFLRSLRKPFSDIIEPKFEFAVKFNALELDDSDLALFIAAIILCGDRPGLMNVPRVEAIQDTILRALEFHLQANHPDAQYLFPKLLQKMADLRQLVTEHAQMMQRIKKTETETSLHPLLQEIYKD
Procedure: (§1) This study utilized proprietary reporter cells expressing a hybrid receptor comprising the N-terminal Gal4 DNA binding domain fused to the ligand binding domain of the specific human nuclear receptor (hPPARα, hPPARδ, and hPPARγ) and rat nuclear receptor (rPPARα, rPPARδ, and rPPARγ). The reporter vectors used in this Example comprise the firefly luciferase gene functionally linked to the Gal4 upstream activation sequence.
(§2) Nuclear Receptor assay was performed by suspending Reporter Cells in CRM containing 10% charcoal stripped FBS. 2×-EC80 concentrations of the appropriate reference agonist were then added to the Reporter Cell suspension, and 100 μL of the mixture dispensed into wells of a white 96-well plate. Test compounds were diluted using compound screening medium (CSM) containing 10% charcoal stripped FBS to generate “2×-concentration” treatment media. Immediately after this dilution step, 100 μL of each diluted 2×-concentration treatment medium was dispensed (in triplicate) into the Reporter Cell-containing assay wells.
(§3) After incubation at 37° C. for 24 hours, the treatment media was discarded. Each well was rinsed once with LCM Buffer; LCM substrate was then added. After incubation for 30 minutes at 37° C., fluorescence was measured to determine the relative number of live cells per assay well. LCM substrate was then discarded and 100 μL of Luciferase Detection Reagent substrate was added to each well. RLUs were quantified from each well to determine nuclear receptor activities.

rPPARδ Reporter Cells = assay: Live cell multiplex assay
Procedure: as §1, §2, §3

hPPARα Reporter Cells = assay: Live cell multiplex assay
Procedure: as §1, §2, §3

rPPARα Reporter Cells = assay: Live cell multiplex assay
Procedure: as §1, §2, §3

rPPARγ Reporter Cells = assay: Live cell multiplex assay
Procedure: as §1, §2, §3

hPPARγ Reporter Cells = assay: Live cell multiplex assay
Procedure: as §1, §2, §3

hPPARδ Reporter Cells = assay: Live cell multiplex assay
Procedure: as §1, §2, §3

hPPARα = target: T2, hPPARα (Homo sapiens, UniProt Q07869); assay: PPAR agonist reporter assay (Gal4 hybrid receptor, luciferase)
T2 construct: expressed in transfected cells
T2 sequence (Q07869 239-466 limits assumed): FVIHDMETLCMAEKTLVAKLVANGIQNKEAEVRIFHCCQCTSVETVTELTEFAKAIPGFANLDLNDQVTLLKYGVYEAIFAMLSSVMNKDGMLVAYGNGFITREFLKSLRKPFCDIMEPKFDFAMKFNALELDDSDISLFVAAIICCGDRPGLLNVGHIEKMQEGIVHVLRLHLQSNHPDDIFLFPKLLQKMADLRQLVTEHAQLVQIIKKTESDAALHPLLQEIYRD
Procedure: as §1
Nuclear Receptor assay was performed by dispensing 100 μL of a suspension of Reporter Cells in Cell Recovery Medium (CRM) containing 10% charcoal stripped FBS into each well of a white 96-well plate. Test compounds were diluted using compound screening medium (CSM) containing 10% charcoal stripped FBS to generate “2×-concentration” treatment media. Immediately after this dilution step, 100 μL of each diluted 2×-concentration treatment medium was dispensed (in triplicate) into the Reporter Cell-containing assay wells.
After incubation at 37° C. for 24 hours, the treatment media was discarded. 100 μL of Luciferase Detection Reagent substrate was added to each well and RLUs were quantified from each well to determine nuclear receptor activities.

With `CC/C=C\C[C@H](O)/C=C/C=C\C/C=C\C/C=C\CCCC(=O)OCC` [15-HEPE-EE, 15-HEPE ethyl ester] the “% Inhibition of agonist-stimulated receptor activity vs. 0.10% DMSO, hPPAR-δ” value (“% Inhibition … hPPAR-δ” for short) (hPPARδ; 137 nM) was 0.68%, the “% Inhibition … hPPAR-δ” value (hPPARδ; 412 nM) was −7.7% and the “% Inhibition … hPPAR-δ” value (hPPARδ; 1,235 nM) was −11%. The “% Inhibition … hPPAR-δ” value (hPPARδ; 3,704 nM) was −10%, the “% Inhibition … hPPAR-δ” value (hPPARδ; 11,111 nM) was −10% and the “% Inhibition … hPPAR-δ” value (hPPARδ; 33,333 nM) was 1.6%. For the same compound, the “% Inhibition … hPPAR-δ” value (hPPARδ; 100,000 nM) was 29%, the “% Inhibition … hPPAR-δ” value (hPPARδ; 300,000 nM) was 100% and the “inhibition of human PPARs (in words), hPPARδ” value (hPPARδ; at higher test concentrations) was “apparent inhibition”. The “% Live cells vs. 0.10% DMSO, rPPAR-δ” value (rPPARδ Reporter Cells; 137 nM) was 99%, the “% Live cells vs. 0.10% DMSO, rPPAR-δ” value (rPPARδ Reporter Cells; 412 nM) was 97% and the “% Live cells vs. 0.10% DMSO, rPPAR-δ” value (rPPARδ Reporter Cells; 1,235 nM) was 98%. The “% Live cells vs. 0.10% DMSO, rPPAR-δ” value (rPPARδ Reporter Cells; 3,704 nM) was 99%, the “% Live cells vs. 0.10% DMSO, rPPAR-δ” value (rPPARδ Reporter Cells; 11,111 nM) was 100% and the “% Live cells vs. 0.10% DMSO, rPPAR-δ” value (rPPARδ Reporter Cells; 33,333 nM) was 100%. The “% Live cells vs. 0.10% DMSO, rPPAR-δ” value (rPPARδ Reporter Cells; 100,000 nM) was 99%, the “% Live cells vs. 0.10% DMSO, rPPAR-δ” value (rPPARδ Reporter Cells; 300,000 nM) was 5.0% and the “% Live cells vs. 0.10% DMSO, hPPAR-α” value (hPPARα Reporter Cells; 137 nM) was 96%. The “% Live cells vs. 0.10% DMSO, hPPAR-α” value (hPPARα Reporter Cells; 412 nM) was 94%, the “% Live cells vs. 0.10% DMSO, hPPAR-α” value (hPPARα Reporter Cells; 1,235 nM) was 119% and the “% Live cells vs. 0.10% DMSO, hPPAR-α” value (hPPARα Reporter Cells; 3,704 nM) was 120%. For the same compound, the “% Live cells vs. 0.10% DMSO, hPPAR-α” value (hPPARα Reporter Cells; 11,111 nM) was 117%, the “% Live cells vs. 0.10% DMSO, hPPAR-α” value (hPPARα Reporter Cells; 33,333 nM) was 115% and the “% Live cells vs. 0.10% DMSO, hPPAR-α” value (hPPARα Reporter Cells; 100,000 nM) was 69%. The “% Live cells vs. 0.10% DMSO, hPPAR-α” value (hPPARα Reporter Cells; 300,000 nM) was 35%, the “% Live cells vs. 0.10% DMSO, rPPAR-α” value (rPPARα Reporter Cells; 137 nM) was 89% and the “% Live cells vs. 0.10% DMSO, rPPAR-α” value (rPPARα Reporter Cells; 412 nM) was 98%. For the same compound, the “% Live cells vs. 0.10% DMSO, rPPAR-α” value (rPPARα Reporter Cells; 1,235 nM) was 97%, the “% Live cells vs. 0.10% DMSO, rPPAR-α” value (rPPARα Reporter Cells; 3,704 nM) was 99% and the “% Live cells vs. 0.10% DMSO, rPPAR-α” value (rPPARα Reporter Cells; 11,111 nM) was 99%. The “% Live cells vs. 0.10% DMSO, rPPAR-α” value (rPPARα Reporter Cells; 33,333 nM) was 98%, the “% Live cells vs. 0.10% DMSO, rPPAR-α” value (rPPARα Reporter Cells; 100,000 nM) was 76% and the “% Live cells vs. 0.10% DMSO, rPPAR-α” value (rPPARα Reporter Cells; 300,000 nM) was 3.1%. For the same compound, the “% Live cells vs. 0.10% DMSO, rPPAR-γ” value (rPPARγ Reporter Cells; 137 nM) was 98%, the “% Live cells vs. 0.10% DMSO, rPPAR-γ” value (rPPARγ Reporter Cells; 412 nM) was 101% and the “% Live cells vs. 0.10% DMSO, rPPAR-γ” value (rPPARγ Reporter Cells; 1,235 nM) was 101%. For the same compound, the “% Live cells vs. 0.10% DMSO, rPPAR-γ” value (rPPARγ Reporter Cells; 3,704 nM) was 100%, the “% Live cells vs. 0.10% DMSO, rPPAR-γ” value (rPPARγ Reporter Cells; 11,111 nM) was 101% and the “% Live cells vs. 0.10% DMSO, rPPAR-γ” value (rPPARγ Reporter Cells; 33,333 nM) was 101%. The “% Live cells vs. 0.10% DMSO, rPPAR-γ” value (rPPARγ Reporter Cells; 100,000 nM) was 99%, the “% Live cells vs. 0.10% DMSO, rPPAR-γ” value (rPPARγ Reporter Cells; 300,000 nM) was 91% and the “% Live cells vs. 0.10% DMSO, hPPAR-γ” value (hPPARγ Reporter Cells; 137 nM) was 86%. The “% Live cells vs. 0.10% DMSO, hPPAR-γ” value (hPPARγ Reporter Cells; 412 nM) was 99%, the “% Live cells vs. 0.10% DMSO, hPPAR-γ” value (hPPARγ Reporter Cells; 1,235 nM) was 101% and the “% Live cells vs. 0.10% DMSO, hPPAR-γ” value (hPPARγ Reporter Cells; 3,704 nM) was 101%. The “% Live cells vs. 0.10% DMSO, hPPAR-γ” value (hPPARγ Reporter Cells; 11,111 nM) was 100%, the “% Live cells vs. 0.10% DMSO, hPPAR-γ” value (hPPARγ Reporter Cells; 33,333 nM) was 99% and the “% Live cells vs. 0.10% DMSO, hPPAR-γ” value (hPPARγ Reporter Cells; 100,000 nM) was 91%. The “% Live cells vs. 0.10% DMSO, hPPAR-γ” value (hPPARγ Reporter Cells; 300,000 nM) was 4.9%, the “% Live cells vs. 0.10% DMSO, hPPAR-δ” value (hPPARδ Reporter Cells; 137 nM) was 95% and the “% Live cells vs. 0.10% DMSO, hPPAR-δ” value (hPPARδ Reporter Cells; 412 nM) was 98%. The “% Live cells vs. 0.10% DMSO, hPPAR-δ” value (hPPARδ Reporter Cells; 1,235 nM) was 99%, the “% Live cells vs. 0.10% DMSO, hPPAR-δ” value (hPPARδ Reporter Cells; 3,704 nM) was 100% and the “% Live cells vs. 0.10% DMSO, hPPAR-δ” value (hPPARδ Reporter Cells; 11,111 nM) was 101%. The “% Live cells vs. 0.10% DMSO, hPPAR-δ” value (hPPARδ Reporter Cells; 33,333 nM) was 101%, the “% Live cells vs. 0.10% DMSO, hPPAR-δ” value (hPPARδ Reporter Cells; 100,000 nM) was 101% and the “% Live cells vs. 0.10% DMSO, hPPAR-δ” value (hPPARδ Reporter Cells; 300,000 nM) was 7.7%. The “Fold-Activation (vs. 0.10% DMSO) hPPAR-α” value (hPPARα; 137 nM) was 0.90 fold, the “Fold-Activation (vs. 0.10% DMSO) hPPAR-α” value (hPPARα; 412 nM) was 1.1 fold and the “Fold-Activation (vs. 0.10% DMSO) hPPAR-α” value (hPPARα; 1,235 nM) was 1.1 fold. For the same compound, the “Fold-Activation (vs. 0.10% DMSO) hPPAR-α” value (hPPARα; 3,704 nM) was 2.1* fold, the “Fold-Activation (vs. 0.10% DMSO) hPPAR-α” value (hPPARα; 11,111 nM) was 4.2* fold and the “Fold-Activation (vs. 0.10% DMSO) hPPAR-α” value (hPPARα; 33,333 nM) was 6.8* fold. The “Fold-Activation (vs. 0.10% DMSO) hPPAR-α” value (hPPARα; 100,000 nM) was 5.0* fold, the “Fold-Activation (vs. 0.10% DMSO) hPPAR-α” value (hPPARα; 300,000 nM) was 0.98 fold and the “agonism activity against human PPARα (in words)” value (hPPARα; at low to higher doses in the dose response curve) was “moderate agonism activity”.
